{"source": "ChEMBL document CHEMBL1201862", "about": "“PubChem BioAssay data set” (2004)", "key": {"Escherichia coli [1]": {"tested_on": "Escherichia coli", "assay": "microbe, parasite or virus in culture"}, "Exodeoxyribonuclease V": {"molecular_target": "T1, Exodeoxyribonuclease V (Escherichia coli (strain K12), UniProt P04993+P07648+P08394)", "T1 sequence (P04993 whole entry)": "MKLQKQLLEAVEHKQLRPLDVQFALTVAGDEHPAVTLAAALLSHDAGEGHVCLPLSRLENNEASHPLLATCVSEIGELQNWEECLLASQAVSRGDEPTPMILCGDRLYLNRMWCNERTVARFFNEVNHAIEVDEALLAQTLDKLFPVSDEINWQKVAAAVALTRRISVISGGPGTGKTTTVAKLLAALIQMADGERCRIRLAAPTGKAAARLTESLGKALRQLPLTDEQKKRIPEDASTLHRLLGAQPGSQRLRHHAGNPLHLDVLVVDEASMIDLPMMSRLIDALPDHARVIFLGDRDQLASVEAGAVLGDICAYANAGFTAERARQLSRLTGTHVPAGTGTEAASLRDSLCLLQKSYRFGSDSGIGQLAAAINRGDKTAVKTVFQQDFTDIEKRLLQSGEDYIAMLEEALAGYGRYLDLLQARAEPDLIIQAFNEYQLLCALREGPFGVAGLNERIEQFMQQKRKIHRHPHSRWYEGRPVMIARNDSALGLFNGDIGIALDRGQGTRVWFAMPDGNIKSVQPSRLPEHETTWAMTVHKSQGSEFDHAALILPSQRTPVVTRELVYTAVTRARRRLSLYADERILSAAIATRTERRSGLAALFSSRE", "T1 sequence (P07648 whole entry)": "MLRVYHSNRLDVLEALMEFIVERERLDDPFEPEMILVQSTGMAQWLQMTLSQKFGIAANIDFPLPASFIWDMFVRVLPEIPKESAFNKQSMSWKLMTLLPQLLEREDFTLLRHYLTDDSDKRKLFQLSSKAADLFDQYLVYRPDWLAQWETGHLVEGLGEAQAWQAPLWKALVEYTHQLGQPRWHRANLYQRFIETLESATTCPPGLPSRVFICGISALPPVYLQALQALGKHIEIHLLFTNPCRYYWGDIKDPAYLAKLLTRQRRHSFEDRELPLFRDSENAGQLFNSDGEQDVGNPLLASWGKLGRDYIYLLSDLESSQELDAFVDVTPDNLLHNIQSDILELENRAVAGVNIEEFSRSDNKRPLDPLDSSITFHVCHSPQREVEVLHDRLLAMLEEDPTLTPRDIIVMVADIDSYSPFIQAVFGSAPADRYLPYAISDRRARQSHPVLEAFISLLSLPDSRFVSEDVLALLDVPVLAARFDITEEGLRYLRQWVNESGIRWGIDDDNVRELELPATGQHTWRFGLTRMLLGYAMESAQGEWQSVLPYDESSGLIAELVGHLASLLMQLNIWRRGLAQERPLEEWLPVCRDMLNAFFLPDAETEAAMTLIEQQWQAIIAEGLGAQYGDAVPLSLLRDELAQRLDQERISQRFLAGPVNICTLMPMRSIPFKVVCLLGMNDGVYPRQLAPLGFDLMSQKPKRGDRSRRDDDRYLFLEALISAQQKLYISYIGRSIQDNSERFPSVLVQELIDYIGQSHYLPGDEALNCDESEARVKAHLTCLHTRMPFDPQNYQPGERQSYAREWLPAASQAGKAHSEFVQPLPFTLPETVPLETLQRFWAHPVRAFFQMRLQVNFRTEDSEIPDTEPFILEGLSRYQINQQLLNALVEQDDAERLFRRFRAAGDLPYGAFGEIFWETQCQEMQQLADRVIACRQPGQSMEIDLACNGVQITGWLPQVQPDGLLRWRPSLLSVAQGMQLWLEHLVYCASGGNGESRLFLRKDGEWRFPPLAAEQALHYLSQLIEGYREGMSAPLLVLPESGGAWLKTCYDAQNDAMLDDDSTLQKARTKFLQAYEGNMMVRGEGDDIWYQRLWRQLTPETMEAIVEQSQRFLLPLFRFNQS", "T1 sequence (P08394 whole entry)": "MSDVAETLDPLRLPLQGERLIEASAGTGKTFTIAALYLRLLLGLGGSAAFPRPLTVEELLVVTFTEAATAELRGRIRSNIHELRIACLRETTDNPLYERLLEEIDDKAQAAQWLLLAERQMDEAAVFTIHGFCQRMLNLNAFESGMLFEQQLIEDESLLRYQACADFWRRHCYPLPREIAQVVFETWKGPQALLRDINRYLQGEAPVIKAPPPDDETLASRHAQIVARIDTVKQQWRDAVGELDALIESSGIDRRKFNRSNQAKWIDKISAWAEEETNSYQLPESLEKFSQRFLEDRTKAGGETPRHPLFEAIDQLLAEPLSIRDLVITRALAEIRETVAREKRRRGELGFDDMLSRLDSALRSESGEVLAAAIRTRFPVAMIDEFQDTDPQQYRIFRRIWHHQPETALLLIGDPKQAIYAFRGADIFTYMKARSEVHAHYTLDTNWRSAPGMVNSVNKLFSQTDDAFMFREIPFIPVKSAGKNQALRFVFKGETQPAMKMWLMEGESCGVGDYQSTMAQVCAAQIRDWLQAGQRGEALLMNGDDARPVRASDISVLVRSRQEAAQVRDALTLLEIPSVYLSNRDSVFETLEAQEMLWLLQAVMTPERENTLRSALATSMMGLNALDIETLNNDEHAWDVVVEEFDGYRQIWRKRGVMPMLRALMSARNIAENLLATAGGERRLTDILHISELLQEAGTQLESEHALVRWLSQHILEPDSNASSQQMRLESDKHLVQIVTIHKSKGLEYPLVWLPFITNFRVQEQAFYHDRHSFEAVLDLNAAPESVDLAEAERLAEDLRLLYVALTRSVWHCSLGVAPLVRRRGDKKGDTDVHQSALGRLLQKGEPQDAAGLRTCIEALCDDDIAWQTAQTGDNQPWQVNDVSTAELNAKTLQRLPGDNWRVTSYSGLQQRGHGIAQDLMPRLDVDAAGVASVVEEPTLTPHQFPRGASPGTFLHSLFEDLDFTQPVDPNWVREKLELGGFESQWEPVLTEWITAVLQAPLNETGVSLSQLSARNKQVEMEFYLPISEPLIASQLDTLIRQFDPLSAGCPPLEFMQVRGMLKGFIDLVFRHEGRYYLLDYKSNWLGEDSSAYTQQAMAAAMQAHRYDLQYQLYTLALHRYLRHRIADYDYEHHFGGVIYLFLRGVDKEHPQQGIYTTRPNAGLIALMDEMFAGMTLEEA", "assay": "E. coli RecBCD inhibitors, dose response, counter-screen for AddAB inhibitor project, absorbance, V66 E. coli, mutant T4 phage (AID 492957)", "assay_type": "functional, cell-based, Escherichia coli str. K-12 substr. MG1655"}, "[2]": {"assay": "Counterscreen for AddAB inhibitors: absorbance-based bacterial cell-based high throughput dose response assay for inhibitors of bacterial viability. [Related pubchem assays (depositor defined):AID435030, AID449728, AID449731, AID488942, AID488955, AID488956]", "assay_type": "functional"}, "Escherichia coli [3]": {"tested_on": "Escherichia coli", "assay": "microbe, parasite or virus in culture", "remark": "listed apart in the source"}, "[4]": {"assay": "growth suppression of beta-catenin-knockout colon cells, dose response, cell-based, HCT116, human colon tumor (AID 1045);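 further: HCT116 colon tumor cells with beta catenin knocked out; cells exposed to compound for 60 hours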", "assay_type": "functional"}, "[5]": {"assay": "growth suppression of PTEN-null colon cells, dose response, cell-based, HCT116 PTEN knockout (AID 1047);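 further: HCT116 colon tumor cells with PTEN knocked out; cells exposed to compound for 60 hours before readout; potency for loss of cell viability measured by luminescence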", "assay_type": "functional"}, "HEK293 [6]": {"tested_on": "HEK293", "assay": "cells", "settings": "Homo sapiens"}, "HEK293 [7]": {"tested_on": "HEK293", "assay": "cells", "settings": "Homo sapiens", "remark": "listed apart in the source"}, "HEK293 [8]": {"tested_on": "HEK293", "assay": "NOD1 signaling inhibitors, primary screen, cell-based, luminescence, uHTS (AID 1578)", "assay_type": "functional", "settings": "Homo sapiens"}, "HEK293 [9]": {"tested_on": "HEK293", "assay": "cells", "assay_type": "functional, cell-based", "settings": "Homo sapiens"}, "HEK293 [10]": {"tested_on": "HEK293", "assay": "NOD2 signaling inhibitors in MDP-stimulated cells, cell-based, uHTS, luminescence (AID 2001)", "assay_type": "functional", "settings": "Homo sapiens"}, "HEK293 [11]": {"tested_on": "HEK293", "assay": "cells", "assay_type": "functional, cell-based", "settings": "Homo sapiens", "remark": "listed apart in the source"}}, "note": "The source made the active and inactive calls.", "data": [{"smiles": "O=C(c1ccccc1F)N1C(=O)c2cccc3cccc1c23", "values": [{"measurement": "AC50", "setting": "Escherichia coli [1]", "value": "38.6 µM (active)"}]}, {"smiles": "CC(=O)c1ccc(NC(S)=NC(NC(=O)c2ccco2)C(Cl)(Cl)Cl)cc1", "note": "(stereo not drawn)", "values": [{"measurement": "IC50", "setting": "Exodeoxyribonuclease V", "value": "> 119 µM (inactive)"}, {"measurement": "IC50", "setting": "[2]", "value": "> 119 µM (inactive)"}]}, {"smiles": "Cc1cccc(OCC(=O)N2CCOCC2)c1", "values": [{"measurement": "AC50", "setting": "Escherichia coli [1]", "value": "37.1 µM (active)"}, {"measurement": "AC50", "setting": "Escherichia coli [3]", "value": "103 µM (active)"}]}, {"smiles": "Cc1cc(C)cc(NC(=O)/C=C/c2ccc([N+](=O)[O-])s2)c1", "values": [{"measurement": "EC50", "setting": "[4]", "value": "6.03 µM (active)"}, {"measurement": "EC50", "setting": "[5]", "value": "3.75 µM (active)"}, {"measurement": "EC50", "setting": "HEK293 [6]", "value": "> 59.7 µM (inactive)"}, {"measurement": "EC50", "setting": "HEK293 [7]", "value": "> 59.7 µM (inactive)"}, {"measurement": "EC50", "setting": "HEK293 [8]", "value": "> 20 µM (inactive)"}, {"measurement": "IC50", "setting": "HEK293 [9]", "value": "> 20 µM (inactive)"}, {"measurement": "IC50", "setting": "HEK293 [10]", "value": "> 20 µM (inactive)"}, {"measurement": "IC50", "setting": "HEK293 [11]", "value": "9.79 µM (active)"}]}]}
